Data on five compounds can be found in patent US20220275025A1, “BONE REMODELING REGULATORY PEPTIDES AND APPLICATION THEREOF” (THE SECOND XIANGYA HOSPITAL OF CENTRAL SOUTH UNIVERSITY, priority 2019, published 2022).

Square brackets hold non-standard residues; d marks the D form. Ends that are not written are not given here. Peptide text beside a SMILES is read from it. Hyp = O=C(O)[C@@H]1C[C@@H](O)CN1

One data set concerns the target T1, mOSCAR (Mus musculus, UniProt Q8VBT3).
T1 construct: The extracellular domains of the mOSCAR were amplified by RT-PCR and inserted with expression vectors of His tag fusion proteins; made in house; host or cells: HEK293T cells
T1 sequence (Q8VBT3 19-231 limits assumed): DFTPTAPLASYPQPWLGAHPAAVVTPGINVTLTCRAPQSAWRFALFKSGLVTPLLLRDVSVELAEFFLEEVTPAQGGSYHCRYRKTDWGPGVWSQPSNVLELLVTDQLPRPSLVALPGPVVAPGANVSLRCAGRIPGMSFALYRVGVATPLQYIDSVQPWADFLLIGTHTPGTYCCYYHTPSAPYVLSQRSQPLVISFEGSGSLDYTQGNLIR
The data set can be described thus: Solid-phase binding experiment of collagen peptides with mOSCAR-His fusion protein. The conditions noted are these: peptide coated on 96-well plate, mOSCAR-His 37° C. 3 hours, absorbance at 492 nm. As for the experimental part: 1) The extracellular domains of the mOSCAR were amplified by RT-PCR and inserted with expression vectors of His tag fusion proteins. Then, the constructed vectors were transfected into HEK293T cells for expression, and mOSCAR-His fusion protein were purified by ion-exchange chromatography and molecular sieve chromatography.
2) Collagen peptides were dissolved with 10 mM acetic acid and wrapped to a 96-well microtitration plate overnight. After being sealed in phosphate buffer containing bovine serum albumin at room temperature for 1 hour, mOSCAR-His fusion protein was added and incubated at 37° C. for 3 hours. Then, horseradish peroxidase-labeled goat anti-mouse IgG antibody that capable of reacting specifically with His added and incubated at room temperature for 1 hour. The binding mOSCAR-His fusion protein was detected by O-phenylenediamine dihydrochloride. The reaction was terminated by 3 M H2SO4, and the absorbance at 492 nm was measured. It was confirmed that the type II collagen peptide (OSC^pep) and 4 segments of type I collagen peptides (A1-1, A1-2-1, A1-4-1, A1-5-3) could bind to the mOSCAR (FIG. 5).

For data set [1], the system named is Primary BMMs. The data set can be described thus: Cytotoxicity experiment, CCK-8 kit. Format: cell-based, mouse. The conditions noted are these: 0, 1, 10, 100, 200, 500, 800, 1000, and 1500 μg/mL, 24 and 48 hours. As for the experimental part: (§1) 1) Bilateral femurs and tibias of wild-type female mice were aseptically isolated, and bone marrow cells were obtained by repeatedly washing bone marrow cavities with culture medium. After culturing in α-MEM complete medium containing M-CSF (30 ng/mL) for 24-hour, nonadherent cells were suctioned, centrifuged, and resuspended, and then cultured in the α-MEM complete medium containing M-CSF (30 ng/mL) for 3 days to obtain adherent mouse primary bone marrow mononuclear macrophages (osteoclast precursor cells). Osteoclast precursor cells were conducted by M-CSF (50 ng/mL) and RANKL (100 ng/mL) to obtain osteoclast and identified by TRAP staining (FIG. 1A). The expression of the collagen receptor OSCAR on osteoclast precursor cells and osteoclasts were determined by immunofluorescence (FIG. 1B) and Western blot (FIG. 1C).
1) Primary BMMs were cultured in vitro according to the method in Part 1 above, the A1-1/A1-4-1 collagen peptide was taken as an example for carrying out the cytotoxicity experiment. Primary BMMs were treated with different concentrations (0, 1, 10, 100, 200, 500, 800, 1000, and 1500 μg/mL) of collagen peptide for 24 and 48 hours, and the cytotoxicity was determined by CCK-8 kit.
On the technique in general: Formazan colour is commonly taken as a measure of viable cells.

For data set [2], the system named is Primary BMMs. Briefly: Osteoclast differentiation induced by M-CSF and RANKL, TRAP staining. The data set is classed as cell-based, mouse. The procedure: as §1
2) Primary BMMs were treated with different concentrations of 5 collagen peptides, and induced to differentiate into osteoclasts by M-CSF and RANKL. The effect of different concentrations of collagen peptides on osteoclast differentiation was verified by TRAP staining. It was confirmed that all of the bone remodeling regulatory peptides could promote osteoclast differentiation at low concentration and inhibit osteoclast differentiation at high concentration (FIG. 6A).

A further data set concerns osteoclasts. The data set can be described thus: Bone resorption of osteoclasts in peptide-primary BMMs-bone slice culture system, WGA staining. Format: cell-based, mouse. From the text:
3) Different concentrations of bone remodeling regulatory peptides-primary BMMs-bone slice culture system was constructed by using the above-mentioned method, and the cells in the system were induced to differentiate into osteoclasts by M-CSF and RANKL at the same time. The effect of collagen peptides on bone resorption of osteoclasts was verified by wheat germ agglutinin (WGA) staining. It was confirmed that all of the bone remodeling regulatory peptides could promote bone resorption of osteoclasts at low concentration and inhibit bone resorption of osteoclasts at high concentration (FIG. 6B).

The test system of a further data set is Primary pre-osteoblasts. The data set can be described thus: Osteoblast differentiation, ALP staining. Format: cell-based, mouse. The procedure:
2) After skulls of the wild-type mice were aseptically isolated, cells were isolated by collagenase digestion and nucleated cells were obtained by density gradient centrifugation. Cells were induced to differentiate into osteoblasts by medium containing 10 mM β-sodium glycerophosphate, 50 μM vitamin C and 10^−7 M dexamethasone and identified by ALP staining (FIG. 1D). The expression of the collagen receptor OSCAR on pre-osteoblasts induced for 0th, 7th, 14th, 21st, and 35th day and MLO-Y4 bone cell lines was determined by immunohistochemistry (FIG. 1E) and Western blot (FIG. 1F).
4) Primary pre-osteoblasts were cultured in vitro according to the method in Part 1 above. Then, cells were treated with different concentrations of 5 segments of collagen peptides, and induced to differentiate into osteoblast by 10 mM […], 50 μM vitamin C and 10^−7 M dexamethasone at the same time. The effect of the collagen peptides on osteoblast differentiation was verified by ALP staining. It was confirmed that the bone remodeling regulatory peptides could inhibit osteoblast differentiation and bone formation at low concentration and promote osteoblast differentiation and bone formation at high concentration (FIG. 6C). […]

As for `C[C@H](NC(=O)CN)C(=O)N1C[C@H](O)C[C@H]1C(=O)NCC(=O)N1CCC[C@H]1C(=O)N[C@@H](CCC(N)=O)C(=O)NCC(=O)N[C@@H](Cc1ccccc1)C(=O)N[C@@H](CCC(N)=O)C(=O)O` [A1-1, Gly-Ala-Pro-Gly-Pro-Gln-Gly-Phe-Gln] (H-GA[Hyp]GPQGFQ-OH), the “binding to the mOSCAR” value on mOSCAR is given as “could bind”. The cytotoxicity entry in the data set with Primary BMMs [1] is on record as “no toxic effect”.

As for `C[C@H](NC(=O)[C@H](Cc1ccccc1)NC(=O)CNC(=O)[C@H](C)NC(=O)[C@@H]1CCCN1C(=O)CNC(=O)[C@@H]1C[C@@H](O)CN1C(=O)[C@@H]1CCCN1C(=O)CN)C(=O)O` [A1-4-1, Gly-Pro-Pro-Gly-Pro-Ala-Gly-Phe-Ala] (H-GP[Hyp]GPAGFA-OH), the “binding to the mOSCAR” value at mOSCAR is given as “could bind”. In addition, in the data set on Primary BMMs [1], the cytotoxicity result is listed as “no toxic effect”.

As to “Gly-Ala-Pro-Gly-Ala-Pro-Gly-Ser-Gln (GA[Hyp]GA[Hyp]GSQ) [A1-2-1]”, the “binding to the mOSCAR” value in the data set with mOSCAR was “could bind”.

“Gly-Ala-Pro-Gly-Pro-Ala-Gly-Phe-Ala (GA[Hyp]GPAGFA) [OSC^pep]”: in the data set with mOSCAR, the “binding to the mOSCAR” value was “could bind”. Moreover, the “concentration that inhibits osteoclast differentiation” value in the data set with Primary BMMs [2] (high concentration) was at least 8000 µg/mL. Also, in the data set on Primary BMMs [2] (low concentration), the “concentration that promotes osteoclast differentiation” value is below 8000 µg/mL. Further, in the data set with osteoclasts (high concentration), the “concentration that inhibits bone resorption” value was at least 8000 µg/mL. Moreover, the “concentration that promotes bone resorption” value in the data set with osteoclasts (low concentration) was below 8000 µg/mL. Further, in the data set on Primary pre-osteoblasts, the “concentration that inhibits osteoblast differentiation and bone formation” value is below 8000 µg/mL; the “concentration that promotes osteoblast differentiation and bone formation” value is at least 8000 µg/mL.

Consider “Gly-Pro-Pro-Gly-Ala-Thr-Gly-Phe-Pro (GP[Hyp]GATGFP) [A1-5-3]”, for which the “binding to the mOSCAR” value with mOSCAR is “could bind”.
